Literature values as cited in US20220218792A1, “COMPOSITIONS TO PROMOTE THE HEALING OF SKIN ULCERS AND WOUNDS” (priority 2014, published 2022).

Experiments:
[1] = test system: indole-positive Proteus spp., Klebsiella and Enterobacter spp.
[2] = test system: strains of organisms from the susceptible genera
[3] = test system: polymorphonuclear leukocytes
[4] = aqueous media at physiological pH
[5] = for gastric tolerability: oral
[6] = test system: Peptostreptococcus (including Peptoniphilus, Finegoldia and Anaerococcus) and Fusobacterium; conditions: anaerobic genera
[7] = test system: Staphylococcus, Streptococcus, Neisseria, Escherichia, Proteus (indole-negative), Serratia, Salmonella, Shigella, Pseudomonas, Haemophilus, Vibrio; conditions: aerobic genera
[8] = test system: chronic wounds and ulcers; conditions: topically applied; deep partial-thickness burns, chronic leg ulcers and leprosy ulcers
[9] = test system: wounds infected with Escherichia coli; conditions: topically applied, rats
[10] = not given; remark: listed apart in the source

C[C@@H]1O[C@@H]1P(=O)(O)O [fosfomycin, [(2R,3S)-3-methyloxiran-2-yl]phosphonic acid]
bactericidal activity [1]: less active
strains showing synergistic effect ([2]; early studies, various antibiotic combinations): 70-100 % of tested strains
synergy rates ([2]; subsequent more extensive studies): 36-74%
concentration in polymorphonuclear leukocytes relative to extracellular fluid [3]: twice
stability in aqueous media [4]: unstable
toxicity to mammalian cells and organs ([5]; intravenous doses of up to 0.5 g/kg/day in human patients): remarkably non-toxic
eosinophilia ([5]; patients): 0.2%
transient rashes (allergy) ([5]; patients): 0.3 % of cases
transiently raised liver enzymes ([5]; patients): 0.3 % of cases
bactericidal activity [6]: active
bactericidal activity [7]: active

GM-CSF: monomeric glycoprotein of 127 amino-acid residues, colony-stimulating factor (SEQ ID NO: 2)
healing of wounds and ulcers [8]: beneficial
bacterial counts [9]: reduced bacterial counts
wound closure [9]: accelerated wound closure

C[C@@H]1O[C@@H]1P(=O)(O)O.NC(CO)(CO)CO [Fosfomycin trometamol]
gastric tolerability [5]: well tolerated
pH of 5% solution: 3.5-5.5
solubility in water [10]: highly soluble

C[C@@H]1O[C@@H]1P(=O)(O)O [Fosfomycin disodium]
gastric tolerability [5]: irritant to the stomach
pH of 5% solution: 9.0-10.5
solubility in water [10]: highly soluble

C[C@@H]1O[C@@H]1P(=O)(O)O [Fosfomycin calcium monohydrate]
gastric tolerability [5]: less irritating to the stomach
pH of 0.4% solution (0.4% solution): 8.1-9.6
solubility in water [10]: sparingly soluble
